In patent US20100075917A1, “THIONUCLEOSIDES AND PHARMACEUTICAL APPLICATIONS” (priority 2006, published 2010):
Where two headings read alike, the source gives them in different places.

Columns and labels:
[1] = tested on: L1210/0 murine leukemia cells; test: Cytotoxic effect on L1210/0 cells; assay type: cell-based; conditions: Tables 5 and 7, L1210/0 cells
CEM cells = test: Cytotoxic concentration in CEM cells (antiviral tests); assay type: cell-based, human; conditions: First and Second Series, second table; viability of CEM cells
Experimental: (§1) The toxicity and the antiviral activities were measured at different concentrations, and their evolution as a function of the concentration makes it possible to evaluate: • the concentration at which 50% of the cells are dead in the absence of virus (CC 50) for each of the test compounds, from the change in absorbance at 540 nm of formazan as a function of the concentration of test compound, • the concentration of compound that leads to a 50% reduction in the activity of viral reverse transcriptase (EC 50). This concentration is determined from the curve representing the change in the percentage of “remaining reverse transcriptase” activity (defined as being the ratio of the activity of the reverse transcriptase in the presence of the test compound to that of the untreated cells) as a function of the concentration of test compound.
CC50: cytotoxic concentration or concentration required to reduce the viability of the CEM cells by 50%.

human Molt4/C8 cells = test: Cytotoxic effect on Molt4/C8 cells; assay type: cell-based; conditions: Tables 5 and 7, Molt4/C8 cells
HIV-2 [2] = test: Anti-HIV-2 effect in CEM/TK− cells; assay type: cell-based; conditions: Human immunodeficiency virus 2, CEM-TK(-); Third Series; CEM cells having no thymidine kinase activity
Experimental: (§2) The evaluation test is described in Roy, B.; Chambert, S.; Lepoivre M.; Aubertin, A.-M.; Balzarini, J.; Décout, J.-L., Deoxyribonucleoside 2′- or 3′-mixed disulfides: prodrugs to target ribonucleotide reductase and/or to inhibit HIV reverse transcription. J. Med. Chem. 2003, 46, 2565-2568.
as §1
(§3) EC50: concentration required to afford 50% protection to the CEM cells against the cytopathogenicity of HIV;
• Effect in CEM not expressing thymidine kinase activity (CEM/TK^−, cells having no thymidine kinase activity).

human CEM T4 lymphocytes = test: Cytotoxic effect on CEM T4 lymphocytes; assay type: cell-based; set-up: unit not given beside the values; conditions: Tables 5 and 7, CEM cells
HIV-1 = test: Anti-HIV-1 effect in CEM cells; assay type: cell-based; conditions: Human immunodeficiency virus 1, CCRF-CEM, read-out: EC50 HIV-1
Experimental: as §2, §1, §3

[3] = tested on: FM3A/0 murine mammary carcinoma cells; test: Cytotoxic effect on FM3A/0 cells; assay type: cell-based; set-up: unit not given beside the values; conditions: Tables 5 and 7, FM3A/0 cells
human CEM cells = test: Cytotoxicity (MTT) on CEM cells; assay type: cell-based; conditions: Homo sapiens, CCRF-CEM, Tables 4 and 6, CEM cells; some values 'then plateau'
Experimental: The cytotoxic effect of a compound is studied on human CEM cells and MCF-7 mammary carcinoma cells that are or are not resistant to gemcitabine, which is an anticancer nucleoside used in chemotherapy.
The cytotoxicity (CC50) was estimated by measuring the reduction of 3-(4,5-dimethylthiazol-2-yl)-2,5-diphenyltetrazolium bromide (MTT), which is converted into insoluble violet formazan. To do this, 100 000 cells (human CEM-SS or MCF-7 lines) are inoculated per well in 100 μl of culture medium, in 96-well microtitration plates. After 24 hours, the test products are added in 100 μl and incubation is continued for 48 to 72 hours. MIT is then added in a proportion of 20 μl of a solution at 5 mg/ml in PBS. Three hours later, 100 μl of a DMF/acetic acid/HCl/SDS (sodium dodecyl sulfate) solution are added. After 3 hours at 37° C., the absorbance of the formazan is measured at 590 nm and compared with that of the untreated control.

HIV-2 [4] = test: Anti-HIV-2 effect in CEM cells; assay type: cell-based; conditions: Human immunodeficiency virus 2, CCRF-CEM, CEM cells, read-out: EC50 HIV-2
Experimental: as §2, §1, §3

HeLa cells = test: Cytotoxic effect on HeLa cells; assay type: cell-based; set-up: unit not given beside the values; conditions: Tables 5 and 7, HeLa cells
[5] = First and Second Series, second table

Question: Which results are given for `Cc1cn([C@H]2C[C@H](SSC(Cl)(Cl)Cl)[C@@H](CO)O2)c(=O)[nH]c1=O` [Compound 22, 3′-deoxythymidin-3′-yl trichloromethyl disulfide]?
Answer: cytotoxic effect, L1210/0 [1]: 45 ± 1; CC50 (CEM cells): 103 ± 4 µM; cytotoxic effect, Molt4/C8 (human Molt4/C8 cells): 55 ± 19; EC50 (HIV-2 [2]): 22.5 ± 3.5 µM; cytotoxic effect, CEM (human CEM T4 lymphocytes): 121 ± 18; EC50 (HIV-1; [5]): 25 µM; EC50 (HIV-1; Third Series): 20 µM; cytotoxic effect, FM3A/0 [3]: 244 ± 49; EC50 (human CEM cells): 21 µM; EC50 (HIV-2 [4]; [5]): 17.5 ± 3.5 µM; EC50 (HIV-2 [4]; Third Series): 27.5 ± 3.5 µM; cytotoxic effect, HeLa (HeLa cells): 39 ± 10
